Assay results published in patent US20210393645A1, “TREATMENT FOR PROGRESSIVE MULTIPLE SCLEROSIS” (UTI LIMITED PARTNERSHIP, priority 2016, published 2021).
Structures can show the parent of a compound that is named as a salt.

Columns and labels:
T-cells [1] = test: Proliferation of T-lymphocytes (3H-thymidine) in anti-CD3/anti-CD28 activated splenocytes; type: cell-based, mouse; settings: Mus musculus, T-cell, 72 h; drug 10 μM, vs activated splenocytes; read-out: mean reduction of 3H-thymidine incorporation (T-cell proliferation)
Method: A previously published protocol was used for isolating and activating T-cells (Keough et al., Nature Comm 7:11312, 2016). Spleens from female C57B16 mice were harvested and after mechanical dissociation the cell suspension was passed through a 70 μm cell strainer and separated by Ficoll gradient (1800 RPM, 30 min). Splenocytes were plated (2.5×10^5 cells in 100 μl/well) in anti-CD3 antibody coated 96-well plates (1,000 ng m1^−1 plate-bound anti-CD3 and 1,000 ng m1^−1 anti-CD28 suspended in media) to activate T-cells. Directly before plating, wells were treated with respective drugs in a final concentration of 10 μM. Cells were cultured in RPMI 1640 medium, supplemented with 10% FBS, 1 μM sodium pyruvate, 2 mM L-alanyl-L-glutamine, 1% penicillin/streptomycin, 1% HEPES and 0.05 mM 2-mercaptoethanol (all supplements were from Invitrogen). After 48 h, ^3H-thymidine was added in a concentration of 1 μCi per well, and cells were harvested after 24 h on filter mats. Mats were then evaluated for radioactivity (counts per minute) using a liquid scintillation counter.

T-cells [2] = test: as above; type: cell-based, mouse; settings: concentration response
B-cells [3] = test: Proliferation of activated B-cells (3H-thymidine); type: cell-based, human; settings: BCR/anti-CD40L/IL-4 activation
Method: (§1) Venous blood from healthy volunteers was obtained and peripheral blood mononuclear cells (PBMCs) were isolated by Ficoll gradient centrifugation (1800 RPM, 30 min). From PBMCs, B-cells were isolated by positive selection with CD19 directed microbeads (Stemcell Technologies). Purity was assessed by FACS after staining for CD19 (Stemcell Technologies). Cells were plated in a concentration of 2.5×10^5 cells/well in X-VIVO™ medium (Lonza) supplemented with 1% penicillin/streptomycin and 1% Glutamax and treated with drugs for 1 h. […] Medium as well as respective drugs were re-added followed by application of ^3H-thymidine in a concentration of 1 μCi per well to investigate proliferation.

B-cells [4] = test: TNF-α release of activated B-cells (ELISA); type: cell-based, human; settings: BCR/anti-CD40L/IL-4 activation
Method: as §1

[5] = Hydroxyl radical antioxidant capacity (HORAC) assay; type: biochemical; settings: vs 12.5 μM gallic acid (=1), 60 min
Method: In this assay, hydroxyl radicals generated by a Co(II)-mediated Fenton-like reaction oxidize fluorescein causing loss of fluorescence (Ou et al., J Argricultural Food Chemistry 50:2772-2777, 2002). The presence of an anti-oxidant reduces the loss of fluorescence and this can be monitored every 5 min over a period of 60 min with a Spectra Max Gemini XS plate reader (Molecular Devices, Sunnyvale, Calif., USA) and the software SoftMax Pro version 5. For monitoring fluorescence, we used an excitation wavelength of λ=485 nm and an emission wavelength of λ=520 nm.
The biochemical cell free hydroxyl radical antioxidant capacity (HORAC) assay investigates the prevention of hydroxyl radical mediated oxidation of to fluorescein in comparison to the strong anti-oxidant gallic acid. The generation of hydroxyl radicals by a cobalt-driven Fenton-like reaction oxidizes fluorescein with progressive loss of fluorescence. The presence of an anti-oxidant reduces the loss of fluorescence over time.
We compared the area under the curve of test compounds to that elicited by gallic acid to obtain the gallic acid equivalent (GAE).

C57BL/6 mice = test: Histological analyses of the spinal cord of EAE mice (HE/LFB, Iba1, Bielschowsky); type: in vivo, mouse; settings: 25 mg/kg IP from day 0
Excerpt: Spinal cords and cerebella were removed. […] Cervical and lumbar cords were snap frozen.

T-lymphocytes = test: Cell cycle analysis of activated splenocytes by flow cytometry (propidium iodide); type: cell-based, mouse
Method: Two days after activation and drug treatment splenocytes were harvested, washed with PBS followed by resuspension in PBS with 2% FBS. Cell cycle analysis was performed taking advantage of propidium iodide staining (50 μg/ml) using an established protocol (Besson and Yong, 2000). Cells were washed in cold PBS and resuspended in PI/Triton X-100 staining solution (10 ml 0.1% (v/v) Triton X-100 in PBS with 2 mg DNAse-free RNAse A and 0.4 ml of 500 μg/ml PI), followed by incubation at 4° C. for 30 min. Stained cells were analyzed on a FACSCalibur™ with the software CellQuest™ (BD Biosciences). Cell cycle analysis was conducted using the software ModFit LT, version 3.3 (Verity Software House Inc.).
Cells were identified by gating into the lymphocyte population, followed by single cell gating to exclude doublets and aggregates. This was followed by identification of the G0/G1 population and processing with the software ModFit LT, version 3.3 (Verity Software House Inc.) to calculate the percentage of cells in different cell cycles.

CN(C)CCCN1c2ccccc2CCc2ccc(Cl)cc21 [CLOMIPRAMINE HYDROCHLORIDE]
inhibition at 10 µM (T-cells [1]): 68.2% | concentration from which T-lymphocyte proliferation is significantly reduced (T-cells [2]): 5 µM | concentration from which proliferation of activated B-cells is reduced (B-cells [3]): 2 µM | concentration from which production of TNF-α of activated B-cells is reduced (B-cells [4]): 2 µM | mean HORAC-GAE (gallic acid equivalents) [5]: 2.1 | axonal damage (Bielschowsky stain) (C57BL/6 mice): significantly less axonal damage | histological score of the spinal cord (inflammation) (C57BL/6 mice): 1.7 | microglial activation (Iba1 staining) (C57BL/6 mice): prevented microglial activation | concentration from which cell cycle arrest is seen (more cells in G1, less in S-phase) (T-lymphocytes): 2 µM
